Measurements published in US20250382346A1, “NEURONAL PROMOTERS AND USES THEREOF” (priority 2023, published 2025).
Entries after “also recorded” stand apart in the source; their conditions may differ.

Assays:
rM3Ds [1] = biological target: T1, rM3Ds (Rattus norvegicus, UniProt P08483, A177S/A238G/A489L/DEL261-437/DEL441-478/E258S/I253V/I483M/INS256[…]/K178L/K182A/K255R/K484R/K486H/L173F/L482A/M480V/R171S/R176Q/R179M/S481M/T174R/T181R/T257A/Y148C)
T1 sequence (P08483 with tags, fused parts or gaps Y148C/R171S/L173F/T174R/R176Q/A177S/K178L/R179M/T181R/K182A/A238G/I253V/K255R/INS256[…]/T257A/E258S/DEL261-437/DEL441-478/M480V/S481M/L482A/I483M/K484R/K486H/A489L): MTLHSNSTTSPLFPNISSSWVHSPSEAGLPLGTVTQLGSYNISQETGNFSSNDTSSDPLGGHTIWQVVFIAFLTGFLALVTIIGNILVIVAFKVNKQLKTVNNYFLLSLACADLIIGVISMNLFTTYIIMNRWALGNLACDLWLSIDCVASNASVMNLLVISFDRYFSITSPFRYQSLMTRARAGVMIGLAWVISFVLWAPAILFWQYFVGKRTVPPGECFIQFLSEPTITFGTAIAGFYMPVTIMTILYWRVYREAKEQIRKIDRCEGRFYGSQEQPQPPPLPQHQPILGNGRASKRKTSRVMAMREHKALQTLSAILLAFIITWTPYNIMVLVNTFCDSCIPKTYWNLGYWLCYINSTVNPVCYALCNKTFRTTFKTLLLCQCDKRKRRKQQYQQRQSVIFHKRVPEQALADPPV
Protocol: Monkeys were continuously monitored by veterinarians after lesion.
Dyskinesia score criteria were: 0: Absent. 1: Mild, fleeting, present <30% of the observation period.
Each block included ten continuous trials.
Customized surface EMG electrodes were used for EMG recordings. […] The recording procedure was conducted immediately after DCZ infusions.

[2] = CSF concentration of DCZ by LC-MS; conditions: 24 hours after drug infusion, 0.3 mg/kg i.m.
[3] = Locomotion test in naïve macaques (no viral injection); assay type: in vivo; conditions: DCZ 0.3 mg/kg i.m.
rM3Ds [4] = biological target: T1, rM3Ds; test: In vivo electrophysiological recording in caudate/putamen of anesthetized macaques, rM3Ds; set-up: 2A-EYFP (C); expressed in transfected cells; host or cells: neurons (striatal D1-MSNs) of mice or cynomolgus macaques, transduced in vivo by nigral AAV8R12-G88P7-rM3Ds-2A-EYFP; conditions: MPP+ lesioned macaques, CNO 36 cells, DCZ 31 cells
Protocol: • Electrophysiological recording was performed through a recording chamber while the monkey was anesthetized. Neural responses were recorded by a 16-channel linear probe (Plexon Inc, Uprobe) driven by a mechanical microdrive (Alpha Omega, FlexMT). Signals were passed through a head stage (Plexon Inc, HST/16V-G20 LN) and then split and filtered between 300 Hz and 5 kHz to identify spiking activity with an amplifier system (Plexon Inc, OmniPlex). Detected spikes were then sorted by commercially available software (Plexon Inc, Offline Sorter) for further analysis. To quantify the effect of CNO/DCZ injection, neural activity was recorded for 60 minutes following CNO/DCZ injection. The response time-course for each channel was obtained by counting the spikes within every 10-minute window and then normalizing to the maximal.
To determine the effect of CNO/DCZ injection on the direction of signal change, we performed Pearson correlation between neural responses and time using the ‘corr’ function in Matlab, which generates the correlation coefficient ‘r’ and significant level ‘p’. A neuron was considered to have “Increased” activity when r>0 and p<0.05; and considered to have “Decreased” activity when r<0 and p<0.05. Otherwise, neurons were considered to be “Unchanged” in their neural activities. The responses of all increased neurons were then averaged after being normalized by the maximal response (Crowe et al., 2014; Dai and Wang, 2018; Hirokawa et al., 2019) following CNO/DCZ injection, and then plotted as a function of time to generate the normalized population response.
To enable in-vivo verification of the strategy via an opto-tagging approach, AAV virus encoding opsin ChR2 (AAV9-EF1α-DIO-ChR2-EYFP) was injected into the striatum with simultaneous nigral infusion of a retrograde AAV encoding Cre and rM3Ds (AAV8R12-G88P7-HA-rM3Ds-2A-Cre). A total volume of 27 μl (3 μl×9 sites) and 30 μl (3 μl×10 sites) were injected in the SNr and the striatum, respectively. A recording chamber was implanted above the striatum to allow optical stimulation and electrophysiological recording.
Optogenetic verification was conducted six weeks after virus injections. A 16-channel linear probe with an embedded optic fiber (Plexon Inc., Uprobe) was used to deliver light stimulation and record neural responses. A mechanical Microdrive (FlexMT, Alpha Omega, Nazareth, Israel) was used to mount and drive the probe. A blue laser (473 nm, Changchun New Industries Tech, MBL-III-473) was used to generate light stimulation, which was controlled by a DAQ board (National Instruments, PCIe-6321) through the MonkeyLogic toolbox (NIMH version).
Light pulses of 40 Hz that last for 500 ms were used to probe neurons' responses to optical stimulation. […] Responses from these optically identified cells were grouped to generate the normalized population response as a function of time.

[5] = Blood test of liver- and kidney-related factors during DCZ treatment; assay type: in vivo, macaques; conditions: n=3 monkeys
Description: FIG. 36A-36F depict effects of D1-MSN activation on dyskinesia-like behavior and health state-related blood factors in parkinsonian macaques. FIG. 36A illustrates quantitation of dyskinesia score at 2 months, 4 months, and 8 months after treatment with DCZ. n=3 monkeys per group.
Intriguingly, many of the symptoms were greatly reversed after systemic deschloroclozapine (DCZ) administration. DCZ is a potent brain-penetrable agonist for rM3Ds with reduced off-targeting binding compared to CNO, and was administered to activate the DREADD system in the macaque brain.

Q: What does the source list for `CN1CCN(C2=Nc3ccccc3Nc3ccccc32)CC1` [DCZ, Deschloroclozapine]?
A: alleviation of parkinsonian symptoms during long-term treatment (rM3Ds [1]; DCZ 0.3 mg/kg every other day): consistent during an 8-month continuous treatment; reversal of parkinsonian symptoms (PD score) (rM3Ds [1]; MPP+ macaques with AAV8R12-G88P7-rM3Ds-2A-EYFP, DCZ 0.3 mg/kg i.m., L-Dopa/benserazide 20/5 mg/kg/day oral): reversal of canonical parkinsonian symptoms in all tested monkeys; also recorded: comparable efficiency to L-Dopa; motor skills (hand to mouth movement) (rM3Ds [1]; MPP+ macaques, DCZ treatment): significant recovery of motor skills; also recorded: partially restored this motor skill; tremor (EMG) (rM3Ds [1]; MPP+ macaques, DCZ treatment): great reduced or even eliminated; also recorded: removed; dyskinesia-like behaviors (dyskinesia score) (rM3Ds [1]; MPP+ macaques, long-term treatment): dyskinesia-free; window of efficacy after each dose (alleviating symptoms after drug administration) (rM3Ds [1]; after the drug reached steady-state efficacy (FIG. 24C)): at least 24 hours; speed of reversal of symptoms, DCZ compared with levodopa (rM3Ds [1]; initial phase of drug administration): faster reversal of symptoms than levodopa; also recorded: reached stable efficacy faster than L-Dopa; duration of effect (FIG. 18C) (rM3Ds [1]; n=3 monkeys): over 24 hr; effect of an extended period (4 months) of prior L-Dopa administration on DCZ treatment (rM3Ds [1]; one month washout, then DCZ 2 months): did not affect the efficacy of DCZ treatment or the absence of dyskinesia; DCZ level in cerebrospinal fluid [2]: no detectable levels; motor-related behaviors in naïve monkeys [3]: did not alter motor-related behaviors in naïve monkeys; cells in caudate/putamen activated (FIG. 15G) (rM3Ds [4]; saline 17.9%): 41.9%; cells in caudate/putamen inactivated (FIG. 15G) (rM3Ds [4]; saline 33.4%): 9.7%; cells in caudate/putamen unchanged (FIG. 15G) (rM3Ds [4]; saline 48.7%): 48.4%; blood levels of common liver- and kidney-related factors (ALT, AST, GGT, CREA, BUN) [5]: remained stable
